Laboratory results reported in the NIST ThermoML archive (doi:10.1016/j.jct.2003.11.008).

Assays:
[1] = excess molar enthalpy (molar enthalpy of mixing); xn = mol fraction of the nth substance listed; details: 318.15 K, 101.3 kPa, Liquid
[2] = xn = mol fraction of the nth substance listed; details: 318.15 K, 101.3 kPa, Liquid

CCCCOC(C)=O [butyl ethanoate] + CCCCCCCCC
Details | excess molar enthalpy [kcal/mol] | excess molar volume [m3/mol]
[1], x1 = 0.0779 | 0.0816 | –
[1], x1 = 0.1485 | 0.146 | –
[1], x1 = 0.2301 | 0.2 | –
[1], x1 = 0.3059 | 0.237 | –
[1], x1 = 0.3775 | 0.261 | –
[1], x1 = 0.442 | 0.271 | –
[1], x1 = 0.5 | 0.272 | –
[1], x1 = 0.5519 | 0.266 | –
[1], x1 = 0.5963 | 0.256 | –
[1], x1 = 0.6435 | 0.243 | –
[1], x1 = 0.6936 | 0.227 | –
[1], x1 = 0.7461 | 0.203 | –
[1], x1 = 0.8009 | 0.172 | –
[1], x1 = 0.8533 | 0.134 | –
[1], x1 = 0.9067 | 0.0904 | –
[1], x1 = 0.9568 | 0.0449 | –
[2], x1 = 0.0761 | – | 2.63e-07
[2], x1 = 0.1325 | – | 4.29e-07
[2], x1 = 0.1914 | – | 5.63e-07
[2], x1 = 0.2533 | – | 6.69e-07
[2], x1 = 0.3151 | – | 7.6e-07
[2], x1 = 0.3713 | – | 8.09e-07
[2], x1 = 0.4229 | – | 8.37e-07
[2], x1 = 0.4749 | – | 8.55e-07
[2], x1 = 0.5222 | – | 8.55e-07
[2], x1 = 0.5765 | – | 8.31e-07
[2], x1 = 0.6275 | – | 7.98e-07
[2], x1 = 0.6744 | – | 7.55e-07
[2], x1 = 0.7062 | – | 7.07e-07
[2], x1 = 0.8023 | – | 5.38e-07
[2], x1 = 0.8838 | – | 3.43e-07
[2], x1 = 0.9444 | – | 1.75e-07

CCCCCCCCC [nonane] + COC(C)=O
Details | excess molar enthalpy [kcal/mol] | excess molar volume [m3/mol]
[1], x2 = 0.0822 | 0.131 | –
[1], x2 = 0.1628 | 0.241 | –
[1], x2 = 0.2353 | 0.335 | –
[1], x2 = 0.2999 | 0.398 | –
[1], x2 = 0.364 | 0.448 | –
[1], x2 = 0.4195 | 0.481 | –
[1], x2 = 0.4714 | 0.497 | –
[1], x2 = 0.5122 | 0.504 | –
[1], x2 = 0.549 | 0.507 | –
[1], x2 = 0.5847 | 0.506 | –
[1], x2 = 0.621 | 0.502 | –
[1], x2 = 0.6618 | 0.49 | –
[1], x2 = 0.7017 | 0.463 | –
[1], x2 = 0.7452 | 0.433 | –
[1], x2 = 0.7891 | 0.388 | –
[1], x2 = 0.8353 | 0.343 | –
[1], x2 = 0.8771 | 0.289 | –
[1], x2 = 0.9219 | 0.208 | –
[1], x2 = 0.9643 | 0.103 | –
[2], x2 = 0.1052 | – | 6.91e-07
[2], x2 = 0.2035 | – | 1.199e-06
[2], x2 = 0.2896 | – | 1.534e-06
[2], x2 = 0.3598 | – | 1.693e-06
[2], x2 = 0.4249 | – | 1.805e-06
[2], x2 = 0.4901 | – | 1.864e-06
[2], x2 = 0.547 | – | 1.881e-06
[2], x2 = 0.5991 | – | 1.837e-06
[2], x2 = 0.6418 | – | 1.774e-06
[2], x2 = 0.6901 | – | 1.658e-06
[2], x2 = 0.7312 | – | 1.562e-06
[2], x2 = 0.7687 | – | 1.431e-06
[2], x2 = 0.7969 | – | 1.305e-06
[2], x2 = 0.8736 | – | 9.39e-07
[2], x2 = 0.925 | – | 6.28e-07
[2], x2 = 0.9663 | – | 3.07e-07

CCCCCOC(C)=O [pentyl ethanoate] + CCCCCCCCC
Details | excess molar enthalpy [kcal/mol] | excess molar volume [m3/mol]
[1], x1 = 0.0676 | 0.0718 | –
[1], x1 = 0.1364 | 0.126 | –
[1], x1 = 0.2097 | 0.173 | –
[1], x1 = 0.2818 | 0.207 | –
[1], x1 = 0.3491 | 0.228 | –
[1], x1 = 0.4124 | 0.239 | –
[1], x1 = 0.4692 | 0.243 | –
[1], x1 = 0.5191 | 0.239 | –
[1], x1 = 0.5639 | 0.232 | –
[1], x1 = 0.621 | 0.216 | –
[1], x1 = 0.6739 | 0.202 | –
[1], x1 = 0.7288 | 0.181 | –
[1], x1 = 0.7858 | 0.154 | –
[1], x1 = 0.8432 | 0.12 | –
[1], x1 = 0.8986 | 0.0826 | –
[1], x1 = 0.9529 | 0.0421 | –
[2], x1 = 0.0672 | – | 1.52e-07
[2], x1 = 0.1243 | – | 2.83e-07
[2], x1 = 0.1813 | – | 4.14e-07
[2], x1 = 0.2354 | – | 5.13e-07
[2], x1 = 0.3037 | – | 5.97e-07
[2], x1 = 0.3405 | – | 6.3e-07
[2], x1 = 0.3995 | – | 6.66e-07
[2], x1 = 0.4479 | – | 6.75e-07
[2], x1 = 0.5035 | – | 6.77e-07
[2], x1 = 0.5492 | – | 6.64e-07
[2], x1 = 0.6071 | – | 6.24e-07
[2], x1 = 0.6461 | – | 5.91e-07
[2], x1 = 0.685 | – | 5.48e-07
[2], x1 = 0.7852 | – | 4.49e-07
[2], x1 = 0.8739 | – | 3.42e-07
[2], x1 = 0.9451 | – | 2.1e-07

CCCCCCCCCCCCCCC [pentadecane] + CCCCCOC(C)=O
Details | excess molar enthalpy [kcal/mol] | excess molar volume [m3/mol]
[1], x2 = 0.0764 | 0.0832 | –
[1], x2 = 0.1647 | 0.162 | –
[1], x2 = 0.2553 | 0.227 | –
[1], x2 = 0.3274 | 0.268 | –
[1], x2 = 0.3976 | 0.296 | –
[1], x2 = 0.4632 | 0.312 | –
[1], x2 = 0.5222 | 0.317 | –
[1], x2 = 0.5758 | 0.314 | –
[1], x2 = 0.6183 | 0.305 | –
[1], x2 = 0.6614 | 0.286 | –
[1], x2 = 0.7069 | 0.264 | –
[1], x2 = 0.7552 | 0.235 | –
[1], x2 = 0.8041 | 0.2 | –
[1], x2 = 0.856 | 0.158 | –
[1], x2 = 0.9056 | 0.111 | –
[1], x2 = 0.955 | 0.057 | –
[2], x2 = 0.097 | – | 2.96e-07
[2], x2 = 0.1823 | – | 5.2e-07
[2], x2 = 0.2485 | – | 6.56e-07
[2], x2 = 0.3223 | – | 7.83e-07
[2], x2 = 0.3863 | – | 8.63e-07
[2], x2 = 0.4452 | – | 9.09e-07
[2], x2 = 0.5075 | – | 9.32e-07
[2], x2 = 0.5553 | – | 9.44e-07
[2], x2 = 0.6017 | – | 9.31e-07
[2], x2 = 0.6519 | – | 9.05e-07
[2], x2 = 0.6946 | – | 8.56e-07
[2], x2 = 0.7436 | – | 7.87e-07
[2], x2 = 0.7672 | – | 7.53e-07
[2], x2 = 0.8482 | – | 5.78e-07
[2], x2 = 0.9107 | – | 3.7e-07
[2], x2 = 0.9606 | – | 1.78e-07
